Experimental data published in patent US9132118B2, “Taxane analogs for the treatment of brain cancer” (Tapestry Pharmaceuticals, Inc., priority 2007, dated 2015).
“Also recorded” adds a separate entry of the source.

Legend:
[1] = Phase 1 Study S-(1)-01, i.v. weekly x3 in a 28-day cycle, safety and pharmacokinetics; type: in vivo, patients; conditions: for AUC0-24 / Cl / Vss / t1/2: Study S-(1)-01 (50:50 Cremophor EL-P/ethanol), i.v., first dose
Procedure: Both trials have enrolled patients with advanced solid tumors, non-Hodgkin's lymphoma or Hodgkin's lymphoma that have recurred or progressed following at least standard therapy; patients with malignancies for which there is no standard therapy; patients who are not candidates for standard therapy; or patients who have chosen not to pursue standard therapy.
(§1) Plasma pharmacokinetics of S-(1) were assessed following the first dose of S-(1) in both studies. Plasma samples were analyzed for S-(1) using a validated LC/MS-MS method.
Treatment cohorts consisted of 3 pts and were expanded to 6 pts in the face of dose-limiting toxicity (DLT); pts could remain on study until the development of progressive disease or an intolerable adverse event. DLT was defined as Gr 4 heme toxicity lasting 7 days; febrile neutropenia, Gr 3 thrombocytopenia with bleeding, Gr 3 elevation of transaminases lasting 7 days or any other Gr 3/4 toxicity other than nausea or vomiting. Results: 25 pts (M:F 16:9, median age 60, range 24-86) were enrolled in 7 dose levels ranging from 7-185 mg/m^2. Pts' cancers included colorectal (6 pts); NSCLC (2); prostate (2); squamous cell carcinoma (2) and 1 pt each with cervical, breast, ovarian, gastric, pancreatic, bladder endometrial, NSCLC, SCLC, glioblastoma, melanoma, renal cell and hepatocellular carcinoma.

[2] = S-(1) pharmacokinetics in mouse, plasma and brain levels after single IV bolus; type: in vivo, mice; conditions: single IV 20 mg/kg; for AUC (0-t) / AUC (0-∞) / Cmax / MRT (expo): male CD-1 mice
Procedure: S-(I) was formulated in 7% Ethanol: 3% Cremophor EL: 90% D5W (5% Dextrose in water). The formulated drug was administered as a single IV bolus via tail vein injection. The details are set out below:
Sample Collection timing: Terminal blood (plasma) and brain specimens were collected at 9 times post-dose, with 4 mice per sample time. Sample collection times:
Blood collection: A terminal blood sample was collected from each mouse via cardiac puncture. The whole blood was collected on wet ice, spun down immediately (at 4° C.), and plasma stored frozen at −20° C. until analysis. The anticoagulant used was K2EDTA. Brain Sample Collection: Whole brains were removed by dissection. Brains were collected on wet ice, weighed, and stored at −20° C.

[3] = S-(1) rat oral bioavailability, formulations evaluated in vivo
Procedure: IV formulation (Cremophor El P/alcohol) and a suspension of the compound of Formula S-(1) in aqueous medium: Several studies were performed to investigate specific parameters.
Using the 50:50 CremophoπEthanol formulation as a case study (AUC last: 2540; norm AUCinf: 477), F was calculated from the ratio of the normalized PO and IV AUCs: F(%)=norm. AUC PO/norm. AUC IV.

[4] = Phase 1 Study S-(1)-02, i.v. every 21 days, safety and pharmacokinetics; type: in vivo, patients; conditions: for AUC0-24 / Cl / Vss / t1/2: Study S-(1)-02 (15:85 Cremophor EL-P/ethanol), i.v., first dose; for half-life: human, plasma, intravenous
Procedure: treatment cycles are repeated every 28 days in patients who remain eligible for continued treatment. Study S-(1)-O1 is currently being conducted in the United States. […] Study S-(I)-02 is currently being conducted in the United States and in Israel.
as §1
Treatment cohorts were expanded to 6 pts in the face of dose-limiting toxicity (DLT); pts could remain on study until the development of progressive disease or an intolerable adverse event. DLT was defined as Gr 4 heme toxicity lasting 7 days; febrile neutropenia, Gr 3 thrombocytopenia with bleeding, Gr 3 elevation of transaminases lasting 7 days or any other Gr ¾ toxicity other than nausea or vomiting.

[5] = tested on: human tumor xenografts; assay: Efficacy of oral or iv S-(1) in mouse xenografts; type: in vivo, nude mice; conditions: human tumor xenografts in nude mice
Procedure: (§2) Summary of Experimental Protocol: Human neuroblastoma tumor cells were implanted via subcutaneous injection of 1-10×10^6 cells in nude mice. Tumors were allowed to grow to 200 mg+/−50 mg in size. Drug dosing was initiated, and tumor volume and body weight were recorded twice weekly.
(§3) The mean value for % body weight change and % tumor volume increase for each experimental group was plotted including error bars for the standard error of the mean.
(§4) Other metrics for assessing antitumor effects include: % T/C values as calculated by the following formula:
(§5) [formula] Log Kill=(T−C)/3.32×(Td)

[6] = Efficacy of oral or iv S-(1) in mouse xenografts; type: in vivo, nude mice; conditions: mouse, in vivo, po; nude mice; from efficacy studies and MTD studies; read-out: apparent oral bioavailability
Procedure: as §2, §3, §4, §5

[7] = weekly study summary, dose of 127.5 mg/m^2

C=C[C@H]1O[C@H]2CC3OC[C@@]3(OC(C)=O)[C@H]3[C@H](OC(=O)c4ccccc4)[C@]4(C(C)(C)O)C[C@H](OC(=O)[C@H](O)[C@H](CC(C)C)NC(=O)OC(C)(C)C)C(C)=C4[C@H](OC(C)=O)[C@H](O1)[C@]23C (stereo partly drawn) [S-(1)]
AUC0-24 ([1]; 14 mg/m^2, plasma): 457 ± 297 ng·h/mL | Cl ([1]; 14 mg/m^2, plasma): 35.5 ± 29.7 L/hr/m^2 | Vss ([1]; 14 mg/m^2, plasma): 23.2 ± 74.5 L/m^2 | t1/2 ([1]; 14 mg/m^2, plasma): 8.4 ± 11.5 h | AUC0-24 ([1]; 28 mg/m^2, plasma): 682 ± 322 ng·h/mL | Cl ([1]; 28 mg/m^2, plasma): 43.5 ± 14.5 L/hr/m^2 | Vss ([1]; 28 mg/m^2, plasma): 309 ± 161 L/m^2 | t1/2 ([1]; 28 mg/m^2, plasma): 3.45 ± 1.09 h | AUC0-24 ([1]; 56 mg/m^2, plasma): 2070 ± 888 ng·h/mL | Cl ([1]; 56 mg/m^2, plasma): 28.6 ± 13.2 L/hr/m^2 | Vss ([1]; 56 mg/m^2, plasma): 216 ± 70 L/m^2 | t1/2 ([1]; 56 mg/m^2, plasma): 5.66 ± 3.63 h | AUC0-24 ([1]; 85 mg/m^2, plasma): 5970 ± 3900 ng·h/mL | Cl ([1]; 85 mg/m^2, plasma): 16.6 ± 9.26 L/hr/m^2 | Vss ([1]; 85 mg/m^2, plasma): 142 ± 75.6 L/m^2 | t1/2 ([1]; 85 mg/m^2, plasma): 5.52 ± 5.26 h | AUC0-24 ([1]; 127.5 mg/m^2, plasma): 4460 ± 2140 ng·h/mL | Cl ([1]; 127.5 mg/m^2, plasma): 30.2 ± 11.9 L/hr/m^2 | Vss ([1]; 127.5 mg/m^2, plasma): 239 ± 116 L/m^2 | t1/2 ([1]; 127.5 mg/m^2, plasma): 6.59 ± 2.60 h | dose limiting toxicity ([1]; Study S-(1)-01, i.v. weekly ×3, observed in one patient at 185 mg/m^2): Grade 3 sensory neuropathy; also recorded: Grade 3 peripheral neuropathy | half-life ([1]; both sexes, human, plasma, intravenous, Study S-(1)-01, after first dose, read-out: Plasma t1/2, range over dose groups): 3.45 to 8.4 h | dose dependence of AUC (in words) ([1]; weekly study): generally dose linear | clearance [1, 7]: 30.2+11.9 L/hr/m^2 | tm [1, 7]: 8.6+1.3 hrs | anti-neoplastic activity ([1]; weekly study, patients with advanced neoplasms): Anti-neoplastic activity was seen in a patient with pancreatic cancer | drug related adverse events ([1]; weekly ×3 then 1 week rest, 7-185 mg/m^2, 25 pts): nausea, vomiting, diarrhea, fatigue, anorexia, rash, anemia and peripheral neuropathy | dose that can be safely administered ([1]; weekly×3 in heavily pre-treated patients): up to 185 mg/m^2 | AUC (0-t) ([2]; Brain): 64984.9 ng·h/mL | AUC (0-∞) ([2]; Brain): 88742.9 ng·h/mL | Cmax ([2]; Brain): 3726.6 ng/mL | MRT (expo) ([2]; Brain): 42.5 h | AUC (0-t) ([2]; Plasma): 16870.2 ng·h/mL | AUC (0-∞) ([2]; Plasma): 16951.2 ng·h/mL | Cmax ([2]; Plasma): 1550.2 ng/mL | MRT (expo) ([2]; Plasma): 17.6 h | passage of the blood-brain barrier (in words) ([2]; mouse model): not impeded by the blood-brain barrier | difference in F with different formulations (in words) [3]: no significant difference in F with different formulations | bioavailability ([3]; in vivo, using a cremophor-free formulation as reference, read-out: effective F (real bioavailability)): 60 to 70% | AUC0-24 ([4]; 56 mg/m^2, plasma): 2530 ± 847 ng·h/mL | Cl ([4]; 56 mg/m^2, plasma): 18.9 ± 9.53 L/hr/m^2 | Vss ([4]; 56 mg/m^2, plasma): 232 ± 93.6 L/m^2 | t1/2 ([4]; 56 mg/m^2, plasma): 8.96 ± 7.09 h | AUC0-24 ([4]; 84 mg/m^2, plasma): 3710 ng·h/mL | Cl ([4]; 84 mg/m^2, plasma): 15.4 L/hr/m^2 | Vss ([4]; 84 mg/m^2, plasma): 300 L/m^2 | AUC0-24 ([4]; 126 mg/m^2, plasma): 6110 ± 3030 ng·h/mL | Cl ([4]; 126 mg/m^2, plasma): 22.1 ± 11.2 L/hr/m^2 | Vss ([4]; 126 mg/m^2, plasma): 166 ± 105 L/m^2 | t1/2 ([4]; 126 mg/m^2, plasma): 6.27 ± 3.64 h | AUC0-24 ([4]; 185 mg/m^2, plasma): 7260 ± 2620 ng·h/mL | Cl ([4]; 185 mg/m^2, plasma): 24.7 ± 12.2 L/hr/m^2 | Vss ([4]; 185 mg/m^2, plasma): 215 ± 116 L/m^2 | t1/2 ([4]; 185 mg/m^2, plasma): 3.43 ± 7.31 h | dose limiting toxicity ([4]; Study S-(1)-02, i.v. every 21 days, 185 mg/m^2 (2 patients)): Grade 3 sensory neuropathy; also recorded: Gr 3 peripheral sensory neuropathy | dose that can be safely administered ([4]; every 21 days in heavily pre-treated patients): 160 mg/m^2 | patients who experienced Gr 4 neutropenia ([4]; every 21 days, 14 patients): 1 pt | drug related adverse events ([4]; every 21 days, 56-185 mg/m^2, 14 patients): mucositis, vomiting, diarrhea, neutropenia, thrombocytopenia, myalgias and peripheral neuropathy | dose limiting toxicity ([4]; every 21 days, dose of 160 mg/m^2): no DLT was observed | dose dependence of AUC (in words) ([4]; every-21-days study): generally dose linear | clearance ([4]; every-21-days study summary, dose of 126 mg/m^2): 24.7±12.2 L/hr/m^2 | tumor response ([4]; every-21-days study, patients with advanced cancer): 1 pt with pancreatic cancer had a confirmed response | half-life ([4]; 126 mg/m2, every-21-days study summary, dose of 126 mg/m^2, read-out: t1/2 (converted)): 10.6 h | half-life ([4]; Study S-(1)-02, after first dose, read-out: Plasma t1/2, range over dose groups): 3.43 to 8.96 h | efficacy / antitumor activity in mouse xenografts (in words) [5]: demonstrated antitumor activity against multiple human tumor xenografts in nude mice, including xenografts that expressed mdr-1 and that were resistant to other taxanes; also recorded: suppressed the growth of multiple human tumor xenografts in nude mice, including xenografts that expressed mdr-1 and that were resistant to other taxanes; also recorded: shows efficacy | bioavailability [6]: 70 to 80%
